Laboratory results as given in paper PMC11788587, “Validating Low‐Dose Iohexol as a Marker for Glomerular Filtration Rate by In Vitro and In Vivo Studies” (Clinical and Translational Science, 2025).

Target: T1, hMATE1 (Homo sapiens, UniProt Q96FL8)
T1 construct: expressed in transfected cells; host or cells: HEK-293 (293) cells, pEBTetD plasmid, doxycycline-induced
T1 sequence (Q96FL8 1-570): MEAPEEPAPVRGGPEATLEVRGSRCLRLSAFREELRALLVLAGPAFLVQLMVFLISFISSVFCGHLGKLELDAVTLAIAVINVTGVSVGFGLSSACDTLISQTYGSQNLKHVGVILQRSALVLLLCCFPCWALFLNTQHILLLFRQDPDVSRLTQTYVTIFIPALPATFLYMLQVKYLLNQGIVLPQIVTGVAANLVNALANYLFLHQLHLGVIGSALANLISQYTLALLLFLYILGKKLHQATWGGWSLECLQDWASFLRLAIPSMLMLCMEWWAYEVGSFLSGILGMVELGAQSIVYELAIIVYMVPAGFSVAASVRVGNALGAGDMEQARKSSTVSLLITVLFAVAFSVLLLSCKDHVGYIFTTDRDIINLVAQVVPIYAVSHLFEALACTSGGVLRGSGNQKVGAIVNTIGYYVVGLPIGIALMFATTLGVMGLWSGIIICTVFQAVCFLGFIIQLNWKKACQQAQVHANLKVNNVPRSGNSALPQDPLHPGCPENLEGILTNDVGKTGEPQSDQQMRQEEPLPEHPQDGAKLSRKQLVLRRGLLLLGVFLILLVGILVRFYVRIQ
Experiment: Substrate assessment: iohexol uptake in 293 cells expressing hMATE1 vs control
Format: in vitro ADME
Conditions: 10 μM iohexol, median (95% CI)
From the text: We characterized the inhibitory potential of iohexol on major drug transporters recommended by regulatory agencies, which were previously assessed in a clinical transporter phenotyping cocktail study. These transporters include hOAT1, hOAT3, hOCT1, hOCT2, hMATE1, hMATE2K, human organic anion transporter polypeptides (hOATP)1B1, hOATP1B3, and human multidrug resistance protein (hMDR)1. Additionally, we investigated whether iohexol is a substrate for any of the renal transporters among these, including hOAT1/3, hOCT1/2, and hMATE1/2K. Cell‐based uptake assays were used to assess the activities of hOAT1/3, hOCT1/2, hMATE1/2K, and hOATP1B1/1B3. Inside‐out membrane vesicle uptake assays were used to evaluate the activity of hMDR1.
For substrate assessments, iohexol was incubated with stably transfected HEK‐293 cells expressing one of the following transporters: hOAT1, hOAT3, hOCT1, hOCT2, hMATE1, or hMATE2K, as well as with control cells lacking transporter expression. Stably transfected cell lines containing pEBTetD plasmids with wild‐type human transporter cDNAs were generated as previously described. Transporter expression was induced by adding 1 μg/mL doxycycline to the growth medium for at least 20 h. Iohexol would be considered a substrate for these transporters if: (1) the ratio of iohexol uptake in cells expressing the transporter to that in control cells was ≥ 2, and (2) a known inhibitor of the transporter reduced iohexol uptake to ≤ 50% at concentrations ≥ 10 times its inhibition constant or half‐maximal inhibitory concentration.
Uptake assays were performed using stably transfected 293 cells, with or without the expression of one of the following transporters: hOAT1, hOAT3, hOCT1, hOCT2, hMATE1, or hMATE2K, as previously described.^1
For the substrate assessment, cells were incubated with 10 µM iohexol for 10 minutes and 30 minutes for each transporter. Inhibition assays were performed using specific standard substrates for each transporter: 10 µM para-aminohippuric acid (PAH) for hOAT1, 3 µM estrone-3-sulfate (E3S) for hOAT3, 50 µM metformin for hOCT1, 5 µM metformin for hOCT2, and 3 µM 1-methyl-4-phenylpyridinium (MPP+) for hMATE1 and hMATE2K. […]
R version 4.2.1 (R Foundation for Statistical Computing, Vienna, Austria) was used for statistical evaluations and data visualization. The data analysis approach for the in vitro study was detailed by Hsin CH et al..^1 In brief, for transport assays, the initial uptake rate was calculated by normalizing the substrate concentration to both the protein concentration and the incubation time for each dish or well. The transporter-mediated uptake rate (net uptake) was determined by performing an element-wise subtraction of uptake rates from different conditions. […]

For CC(=O)N(CC(O)CO)c1c(I)c(C(=O)NCC(O)CO)c(I)c(C(=O)NCC(O)CO)c1I (stereo not shown) [iohexol], the “Differences in intracellular accumulation (expression on minus off)” value (10 minutes) was 0.36 (-1.2 to 1.7) pmol/mg protein, the “Uptake ratio (transporter-expressing vs non-expressing cells)” value (10 minutes) was 1.1 (0.84 to 1.2) and the “Differences in intracellular accumulation (expression on minus off)” value (30 minutes) was -0.67 (-1.6 to 0.61) pmol/mg protein. The “Uptake ratio (transporter-expressing vs non-expressing cells)” value (30 minutes) was 0.92 (0.78 to 1.1).
